Test results reported in PMC5601360 (Journal of Medicinal Chemistry, 2017).
Where two headings read alike, the source gives them in different places.

Assays:
[1] = system: acetic acid-induced writhing in CD1 mice; experiment: Acetic acid-induced writhing assay in mice after sc administration; format: in vivo; conditions: for ED50: Mus musculus, 0.5 h, CD1 mice, inhibition of writhing at 30 min after drug administration, read-out: antinociceptive ED50 (95% CI); for antagonism by nor-BNI of the antinociceptive effect: nor-BNI 20 mg/kg sc 24 h before agonist (2: 5 mg/kg; 3: 1 mg/kg; 4: […] sc)
Procedure: Male CD1 mice (30–35 g, 6–8 weeks old) were obtained from the Center of Biomodels and Experimental Medicine (CBEM) (Innsbruck, Austria) or Charles River (Sulzfeld, Germany). Mice were group-housed in a temperature controlled room with a 12 h light/dark cycle and with free access to food and water. All animal studies were conducted in accordance with ethical guidelines and animal welfare standards according to Austrian regulations for animal research and were approved by the Committee of Animal Care of the Austrian Federal Ministry of Science and Research. Solutions of test compounds were prepared as 1% DMSO solutions in sterile physiological 0.9% saline and further diluted to working doses in saline solution. Test compounds or vehicle (saline) were administered by sc route in a volume of 10 μL/1 g of body weight. All doses are expressed in terms of salts. Separate groups of mice received the respective dose of compound, and individual mice were only used once for behavioral testing. Each experimental group included at least five animals.
Writhing was induced in male CD1 mice by intraperitoneal (ip) injection of a 0.6% acetic acid aqueous solution as described previously.[9a] Groups of mice were administered sc different doses of test compound or saline (control), and then 5 min prior to testing (25 min after drug or saline) each animal received an ip injection of acetic acid solution. Each mouse was placed in individual transparent Plexiglas chambers, and the number of writhes was counted during a 10 min observation period. […] For the antagonism studies, nor-BNI (20 mg/kg) was sc administered 24 h before 2 (5 mg/kg) and 17 (10 mg/kg) was sc administered 15 min before U50,488 (2 mg/kg).

CD1 mice = conditions: mouse, in vivo, sc; for effect on rotarod latencies (motor behavior): 7.5 mg/kg
human KOP receptor [2] = biological target: T1, human KOP receptor (Homo sapiens, UniProt P41145); conditions: ref 9a, cited from earlier work
T1 construct: expressed in transfected cells; host or cells: CHO-hKOP cells (gift of Dr. Lawrence Toll, SRI International)

human DOP receptor [3] = biological target: T2, human DOP receptor (Homo sapiens, UniProt P41143); conditions: CHO-hDOP membranes; ref 9a; read-out: receptor binding affinity Ki DOP; cited from earlier work
T2 construct: expressed in transfected cells; host or cells: CHO-hDOP cells (gift of Dr. Lawrence Toll, SRI International)

human KOP receptor [4] = biological target: T1, human KOP receptor; conditions: percentage stimulation relative to the KOP full agonist U69,593; ref 9a; cited from earlier work
mice = conditions: icv, ref 9d; cited from earlier work
human KOP receptor [5] = biological target: T1, human KOP receptor; experiment: Competition binding assay, CHO-hKOP cell membranes, [3H]U69,593; conditions: for Ki: CHO-hKOP membranes, mean ± SEM, read-out: receptor binding affinity Ki KOP; for selectivity DOP/KOP: Ki ratio DOP/KOP; for selectivity MOP/KOP: Ki ratio MOP/KOP
Procedure: (§1) CHO cells stably expressing recombinant human KOP, MOP, or DOP receptors (CHO-hKOP, CHO-hMOP, and CHO-hDOP cell lines) were kindly provided by Dr. Lawrence Toll (SRI International, Menlo Park, CA). The CHO-hKOP cell line was maintained in Dulbecco’s Minimal Essential Medium (DMEM) supplemented with fetal bovine serum (FBS, 10%), penicillin/streptomycin (0.1%), L-glutamine (2 mM), and geneticin (400 μg/mL). The CHO-hMOP and CHO-hDOP cell lines were maintained in DMEM/Ham’s F-12 medium supplemented with FBS (10%), penicillin/streptomycin (0.1%), L-glutamine (2 mM), and geneticin (400 μg/mL). Cell cultures were maintained at 37 °C in 5% CO2 humidified air.
(§2) Nonspecific binding was determined using 1–10 μM of the unlabeled counterpart of each radioligand. Assays were performed in 50 mM Tris-HCl buffer (pH 7.4) in a final volume of 1 mL. Cell membranes (15–20 μg) were incubated with the appropriate radioligand and various concentrations of test compound for 60 min at 25 °C. After incubation, reactions were terminated by rapid filtration through Whatman glass fiber filters. Filters were washed three times with 5 mL of ice-cold 50 mM Tris-HCl buffer (pH 7.4) using a Brandel M24R cell harvester (Gaithersburg, MD). Radioactivity retained on the filters was counted by liquid scintillation counting using a Beckman Coulter LS6500 (Beckman Coulter Inc., Fullerton, CA). All binding experiments were performed in duplicate and repeated at least three times. The inhibitory constant Ki values (in nM) were calculated from the competition binding curves by nonlinear regression analysis and the Cheng–Prusoff equation.[16]

human MOP receptor = biological target: T3, human MOP receptor (Homo sapiens, UniProt P35372); experiment: Competition binding assay, CHO-hMOP cell membranes, [3H]DAMGO; conditions: mean ± SEM, read-out: receptor binding affinity Ki MOP
T3 construct: expressed in transfected cells; host or cells: CHO-hMOP cells (gift of Dr. Lawrence Toll, SRI International)
Procedure: as §1
as §2, with “. Nonspecific” for “Nonspecific”

human DOP receptor [6] = biological target: T2, human DOP receptor; experiment: Competition binding assay, CHO-hDOP cell membranes, [3H]diprenorphine; conditions: mean ± SEM, read-out: receptor binding affinity Ki DOP
Procedure: as §1
as §2, with “. Nonspecific” for “Nonspecific”

human KOP receptor [7] = biological target: T1, human KOP receptor; experiment: [35S]GTPγS binding assay using CHO-hKOP cell membranes; format: biochemical; conditions: for EC50: CHO-hKOP membranes, mean ± SEM; for Emax: read-out: [35S]GTPγS KOP % stim
Procedure: The binding of [^35S]GTPγS to membranes from CHO cells stably expressing human KOP receptors (CHO-hKOP cells) was conducted according to the published procedures.[9a],[9b] CHO-hKOP cell membranes were prepared in buffer A (20 mM HEPES, 10 mM MgCl2, and 100 mM NaCl, pH 7.4). Cell membranes (8–15 μg) in buffer A were incubated with 0.05 nM [^35S]GTPγS, 10 μM GDP, and various concentrations of test compound in a final volume of 1 mL for 60 min at 25 °C. Nonspecific binding was determined using 10 μM GTPγS, and the basal binding was determined in the absence of test ligand. Samples are filtered over glass fiber filters and counted as described for binding assays. […] To determine the KOP antagonist activity, a concentration–response curve for U69,593 was obtained by assessing the [^35S]GTPγS binding to CHO-hKOP cell membranes in the presence or absence of test compound, as previously described.[9b] For each compound, the Schild analysis was conducted, utilizing a full agonist–dose response curve in the presence of at least two concentrations of the antagonist. The equilibrium dissociation constant (Ke) was calculated from the equation Ke = [a]/(DR – 1), where “a” is the concentration of antagonist and DR the virtual shift of the agonist concentration–response curve to the right in the presence of a given concentration of antagonist. All experiments were performed in duplicate and repeated at least three times.

[8] = percentage stimulation relative to the KOP full agonist U69,593

Compound | ED50 ([1]; sc) [mg/kg] | antagonism by nor-BNI of the antinociceptive effect [1] | Ki (human KOP receptor [5]) [nM] | selectivity DOP/KOP (human KOP receptor [5]) | selectivity MOP/KOP (human KOP receptor [5]) | Ki (human MOP receptor) [nM] | Ki (human DOP receptor [6]) [nM] | EC50 (human KOP receptor [7]) [nM] | Emax (human KOP receptor [7]; [8]) [%] | effect on rotarod latencies (motor behavior) (CD1 mice) | further results
Oc1cccc(CCN(CCc2ccccc2)CC2CC2)c1 [Compound 2] | 3.23 | blocked by nor-BNI | – | – | – | – | – | – | – | – | inhibition of the writhing response ([1]; sc, different doses, 30 min after drug administration): Dose-dependent inhibition of the writhing response; effect on rotarod performance (evoked locomotor activity) (CD1 mice): did not affect the evoked locomotor activity; selectivity DOP/KOP (human KOP receptor [2]; Ki ratio DOP/KOP): >1700; selectivity MOP/KOP (human KOP receptor [2]; Ki ratio MOP/KOP): 140; Ki (human DOP receptor [3]): > 10000 nM; [35S]GTPγS KOP % stim (human KOP receptor [4]): 53.4 ± 8.1%; antinociceptive potency compared to U50,488 (mice): equipotent
Cl.Oc1cccc(CCN(CCc2ccccc2)CC2CCCC2)c1 [Compound 3, 3-[2-[(Cyclopentylmethyl)(phenethyl)amino]ethyl]phenol Hydrochloride] | 0.49 | antagonized by the KOP antagonist nor-BNI | 0.017 ± 0.002 | 133471 | 16118 | 274 ± 20 | 2270 ± 625 | 3.87 ± 1.44 | ≥ 80 | no significant alterations in rotarod latencies | increase in antinociceptive potency vs U50,488 ([1]; sc, ED50 comparison): about 3 fold; increase in antinociceptive potency vs compound 1 ([1]; sc, ED50 comparison): 4 fold; increase in antinociceptive potency vs compound 2 ([1]; sc, ED50 comparison): 7 fold
Cl.Oc1cccc(CCN(CCc2ccccc2)CC2CCCCC2)c1 [Compound 4, 3-[2-[(Cyclohexylmethyl)(phenethyl)amino]ethyl]phenol Hydrochloride] | 1.01 | antagonized by the KOP antagonist nor-BNI | 0.061 ± 0.027 | 35066 | 8803 | 537 ± 172 | 2140 ± 346 | 0.23 ± 0.08 | 61.9 | no significant alterations in rotarod latencies | increase in agonist potency vs compound 1 (human KOP receptor [7]; EC50 comparison): 16 fold; [35S]GTPγS KOP % stim (human KOP receptor [7]; [8]): 61.9 ± 8.1%; reduction in antinociceptive potency vs compound 3 ([1]; sc, ED50 comparison): about 2 fold
Cl.Oc1ccc(CCN(CCc2cccc(O)c2)CC2CC2)cc1 [Compound 17, 3-[2-[(Cyclopropylmethyl)(4-hydroxyphenethyl)amino]ethyl]phenol Hydrochloride] | – | – | 3.56 ± 0.94 | >2800 | 129 | 460 ± 127 | > 10000 | – | – | – | Kd (human KOP receptor [7]; antagonist Ke at the KOP receptor against U69,593): 24.3 ± 1.5 nM; functional activity profile at the KOP receptor (human KOP receptor [7]; in vitro, [35S]GTPγS): KOP antagonism; agonist activity in vivo (effect on pain behavior alone) ([1]; 10 mg/kg sc, compared to control mice): did not affect pain behavior; antagonism of U50,488-induced antinociception ([1]; 17 10 mg/kg sc 15 min before U50,488 2 mg/kg sc): complete reversal of U50,488-induced analgesia
Cl.Oc1cccc(CCN(CCc2ccccc2)CC2CCC2)c1F [Compound 18, 3-[2-[(Cyclobutylmethyl)(phenethyl)amino]ethyl]-2-fluorophenol Hydrochloride] | 2.64 | – | 0.072 ± 0.027 | >138000 | 5529 | 398 ± 57 | > 10000 | 6.9 ± 3.35 | 71.4 | no significant alterations in rotarod latencies | –
Cl.Oc1cccc(CCN(CCc2ccccc2)CC2CCCCC2)c1F [Compound 19, 3-[2-[(Cyclohexylmethyl)(phenethyl)amino]ethyl]-2-fluorophenol Hydrochloride] | 1.33 | – | 0.04 ± 0.006 | – | – | 851 ± 292 | > 10000 | 2.77 ± 0.29 | ≥ 80 | no significant alterations in rotarod latencies | –
Cl.Oc1cccc(CCN(CCc2cccc(O)c2F)CC2CCC2)c1 [Compound 20, 3-[2-[(Cyclobutylmethyl)(3-hydroxyphenethyl)amino]ethyl]-2-fluorophenol Hydrochloride] | 2.25 | – | 0.12 ± 0.01 | >83000 | 4642 | 557 ± 198 | > 10000 | 1.49 ± 0.04 | 57.5 ± 4.4 | – | increase in KOP affinity vs compound 8 (human KOP receptor [5]; Ki comparison): about 3 fold
Cl.Oc1ccc(CCN(CCc2cccc(O)c2F)CC2CCC2)cc1 [Compound 21, 3-[2-[(Cyclobutylmethyl)(4-hydroxyphenethyl)amino]ethyl]-2-fluorophenol Hydrochloride] | 2.14 | – | 3.37 ± 1.54 | 389 | 155 | 523 ± 33 | 1310 ± 281 | 36.7 ± 14 | 69.1 ± 1.9 | – | increase in selectivity KOP vs DOP compared to compound 14 (human KOP receptor [5]; selectivity ratio comparison): 3 fold; increase in selectivity KOP vs MOP compared to compound 14 (human KOP receptor [5]; selectivity ratio comparison): 31 fold
